Reference: patent US7273880B2, “Selective NPY (Y5) antagonists” (H. Lunbeck A/S, priority 1999, dated 2007)
Structures can show the parent of a compound that is named as a salt.

How the values were obtained:
[1] = target: T1, human Y5 receptor (hNPY-5) (Homo sapiens, UniProt Q15761); assay: Radioligand binding to membranes, cloned human Y5 receptor; conditions: cloned human NPY Y5 receptor, radioligand competition binding; Tables 1-3; read-out: Ki, nM hNPY-5
T1 construct: expressed in transfected cells; host or cells: mouse fibroblast LM(tk-) cells, e.g. L-hY5-7 (ATCC CRL-11995)
T1 sequence (Q15761 1-445): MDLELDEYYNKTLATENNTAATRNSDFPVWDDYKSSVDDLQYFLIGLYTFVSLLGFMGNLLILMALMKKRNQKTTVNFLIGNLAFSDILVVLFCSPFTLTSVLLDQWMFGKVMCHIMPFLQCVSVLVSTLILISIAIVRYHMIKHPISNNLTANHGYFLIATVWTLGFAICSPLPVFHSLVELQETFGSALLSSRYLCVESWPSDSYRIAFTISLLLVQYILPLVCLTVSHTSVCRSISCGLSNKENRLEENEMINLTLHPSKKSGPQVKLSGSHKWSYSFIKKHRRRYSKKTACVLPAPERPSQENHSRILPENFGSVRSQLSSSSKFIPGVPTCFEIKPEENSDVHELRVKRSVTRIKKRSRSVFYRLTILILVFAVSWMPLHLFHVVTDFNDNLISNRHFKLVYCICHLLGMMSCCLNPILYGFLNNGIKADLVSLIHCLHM
Method: Binding of the compounds of the present invention to human Y1, Y2, Y4, and Y5 receptors was evaluated using stably transfected 293 or LM(tk-) cells as described above. Stably transfected cell lines which may be used for binding assays include, for example, for the human Y1 receptor, 293-hY1-5 (deposited Jun. 4, 1996, under ATCC Accession No. CRL-12121), for the human Y2 receptor, 293-hY2-10 (deposited Jan. 27, 1994, under ATCC Accession No. CRL-11537), for the human Y4 receptor, L-hY4-3 (deposited Jan. 11, 1995, under ATCC Accession No. CRL-11779), and for human Y5 receptor, L-hY5-7 (deposited Nov. 15, 1995, under ATCC Accession No. CRL-11995). These cell lines were deposited with the American Type Culture Collection (ATCC), 10801 University Blvd., Manassas, Va. 20110-2209, U.S.A. under the provisions of the Budapest Treaty for the International Recognition of the Deposit of Microorganisms for the Purposes of Patent Procedure.
Membranes were harvested from COS-7 cells 48 hours after transient transfection. Adherent cells were washed twice in ice-cold phosphate buffered saline (138 mM NaCl, 8.1 mM Na2HPO4, 2.5 mM KCl, 1.2 mM KH2PO4, 0.9 mM CaCl2, 0.5 mM MgCl2, pH 7.4) and lysed by sonication in ice-cold sonication buffer (20 mM Tris-HCl, 5 mM EDTA, pH 7.7). Large particles and debris were cleared by low speed centrifugation (200×g, 5 min, 4° C.). Membranes were collected from the supernatant fraction by centrifugation (32,000×g, 18 min, 4° C.), washed with ice-cold hypotonic buffer, and collected again by centrifugation (32,000×g, 18 min, 4° C.). The final membrane pellet was resuspended by sonication into a small volume of ice-cold binding buffer (˜1 ml for every 5 plates: 10 mM NaCl, 20 mM HEPES, 0.22 mM KH2PO4, 1.26 mM CaCl2, 0.81 mM MgSO4, pH 7.4). Protein concentration was measured by the Bradford method (Bradford, 1976) using Bio-Rad Reagent, with bovine serum albumin as a standard. Membranes were held on ice for up to one hour and used fresh, or flash-frozen and stored in liquid nitrogen.
Membranes were prepared similarly from 293, LM(tk-), and NIH-3T3 cells. To prepare membranes from baculovirus infected cells, 2×10^7 Sf21 cells were grown in 150 mm tissue culture dishes and infected with a high-titer stock of hY5BB3. Cells were incubated for 2-4 days at 27° C., no CO2 before harvesting and membrane preparation as described above.
Membrane suspensions were diluted in binding buffer supplemented with 0.1% bovine serum albumin to yield an optimal membrane protein concentration so that ^125I-PYY (or alternative radioligand such as ^125I-NPY, ^125I-PYY3-36, or ^125I-[Leu^31Pro^34]PYY) bound by membranes in the assay was less than 10% of ^125I-PYY (or alternative radioligand) delivered to the sample (100,000 dpm/sample=0.08 nM for competition binding assays). ^125I-PYY (or alternative radioligand) and peptide competitors were also diluted to desired concentrations in supplemented binding buffer. Individual samples were then prepared in 96-well polypropylene microtiter plates by mixing 125I-PYY (25 μL) (or alternative radioligand), competing peptides or supplemented binding buffer (25 μL), and finally, membrane suspensions (200 μL). Samples were incubated in a 30° C. water bath with constant shaking for 120 min. Incubations were terminated by filtration over Whatman GF/C filters (pre-coated with 1% polyethyleneimine and air-dried before use), followed by washing with 5 mL of ice-cold binding buffer. Filter-trapped membranes were impregnated with MeltiLex solid scintillant (Wallac, Turku, Finland) and counted for ^125I in a Wallac Beta-Plate Reader. Alternatively, incubations were carried out in GF/C filter plates (pre-coated with 1% polyethyleneimine and air-dried before use), followed by vacuum filtration and three washes of 300 μL of ice-cold binding buffer. 50 μL of UltimaGold (Packard) scintillant were added and counted for ^125I in a Wallac MicroBeta Trilux. […]

melting point [°C] | Ki [1] [nM] | SMILES
55 to 57 | – | O=S(=O)(NCCCCCNc1nc2c(s1)CCCc1ccc(F)cc1-2)c1ccccc1F (as salt: HCl) [Example 3, 1-Aza-9-fluoro-2-(5-(2-fluorophenyl)sulfonylamino)-pentylamino-4,5-dihydro-3-thia-benzo[e]azulene]
– | 4.1 | O=S(=O)(NC[C@H]1CC[C@H](Nc2nc3c(s2)CCCc2ccc(F)cc2-3)CC1)N1CCOCC1 [Example 76, trans-1-Aza-9-fluoro-4,5-dihydro-2-(4-(4-morpholinyl)-sulfonylaminomethyl)cyclohexylamino-3-thia-benzo[e]azulene]
– | 14.6 | COCCOC(=O)NC[C@H]1CC[C@H](Nc2nc3c(s2)CCCc2ccc(F)cc2-3)CC1 [Example 77, trans-1-Aza-9-fluoro-4,5-dihydro-2-(4-(2-methoxy)-ethoxy-carbonylaminomethyl)cyclohexylamino-3-thia-benzo[e]azulene]
– | 6 | COc1ccc2c(c1)CCCc1sc(N[C@H]3CC[C@H](CNS(=O)(=O)N4CCOCC4)CC3)nc1-2 [Example 78, trans-N2-(4-(1-Morpholinylsulfonylaminomethyl)-cyclohexyl-8-methoxy-5,6-dihydro-4H-benzo[6,7]-cyclohepta[d][1,3]thiazol-2-amine hydrochloride]
– | 62 | CC(=O)NC[C@H]1CC[C@H](Nc2nc3c(s2)CCCc2ccc(F)cc2-3)CC1 [Example 81, N1-({4-[(9-fluoro-5,6-dihydro-4H-benzo[6,7]-cyclohepta-[d][1,3]thiazol-2-yl)amino]cyclohexyl}-methyl)acetamide]
– | 11.9 | CCCN(C=O)C[C@H]1CC[C@H](Nc2nc3c(s2)CCCc2ccc(F)cc2-3)CC1 [Example 82, trans-1-Aza-9-fluoro-4,5-dihydro-2-(4-(N-propyl-formamido)-methyl)cyclohexylamino-3-thia-benzo[e]-azulene]
– | 12 | CC(C)N(C=O)C[C@H]1CC[C@H](Nc2nc3c(s2)CCCc2ccc(F)cc2-3)CC1 [Example 83, trans-1-Aza-9-fluoro-4,5-dihydro-2-(4-(N-isopropyl-formamido)methyl)cyclohexylamino-3-thia-benzo[e]-azulene]
– | 40 | COCC(=O)N[C@H]1CC[C@H](CNc2nc3c(s2)CCOc2ccccc2-3)CC1 [Example 84, N1-{4-[(4,5-dihydrobenzo[2,3]oxepino[4,5-d][1,3]thiazol-2-ylamino)methyl]cyclohexyl}-2-methoxyacetamide]
– | 68 | COCCN(C=O)[C@H]1CC[C@H](CNc2nc3c(s2)CCOc2ccccc2-3)CC1 [Example 86, N-{4-[(4,5-dihydrobenzo[2,3]oxepino[4,5-d][1,3]thiazol-2-ylamino)methyl]cyclohexyl}-N-(2-methoxyethyl)formamide]
– | 86 | CCN(C=O)[C@H]1CC[C@H](CNc2nc3c(s2)CCOc2ccccc2-3)CC1 [Example 87, trans-1-Aza-2-(4-(n-(ethyl) formamido)cyclohexyl)methyl-amino-4,5-dihydro-6-oxa-3-thia-benzo[e]azulene]
– | 36 | CCCN(C=O)[C@H]1CC[C@H](CNc2nc3c(s2)CCOc2ccccc2-3)CC1 [Example 88, N-{4-[(4,5-Dihydrobenzo[2,3]oxepino[4,5-d][1,3]-thiazol-2-ylamino)methyl]cyclohexyl}-N-propyl-formamide]
– | 9.2 | COCC(=O)NCc1ccc(Nc2nc3c(s2)CCCc2ccc(F)cc2-3)cc1 [Example 89, N1-{4-[(9-fluoro-5,6-dihydro-4H-benzo[6,7]cyclohepta-[d][1,3]thiazol-2-yl)amino]benzyl}-2-methoxyacetamide]
– | 12.3 | COc1ccccc1-c1csc(N[C@H]2CC[C@H](CNS(C)(=O)=O)CC2)n1 [Example 91, trans-4-(2-Methoxy)phenyl-2-(4-methylsulfonylamino-methyl)-cyclohexylamino-1,3-thiazole hydrochloride]
– | 912 | CCOC(=O)NC[C@H]1CC[C@H](Nc2nc(-c3ccccc3OC)cs2)CC1 [Example 92, trans-2-(4-Ethoxycarbonylaminomethyl)cyclohexylamino-4-(2-methoxy)phenylthiazole hydrogen chloride]
– | 150 | COc1cccc(-c2csc(N[C@H]3CC[C@H](CNS(C)(=O)=O)CC3)n2)c1 [Example 93, trans-4-(3-Methoxy)phenyl-2-(4-methylsulfonylamino-methyl)-cyclohexylaminothiazole]
– | 240 | CCOC(=O)NC[C@H]1CC[C@H](Nc2nc(-c3cccc(OC)c3)cs2)CC1 [Example 94, trans-2-(4-Ethoxycarbonylaminomethyl)cyclohexylamino-4-(3-methoxy)phenylthiazole hydrogen chloride]
– | 106 | CS(=O)(=O)NC[C@H]1CC[C@H](Nc2nc(-c3ccccc3O)cs2)CC1 [Example 95, trans-4-(2-Hydroxy)phenyl-2-(4-methylsulfonylamino-methyl)-cyclohexylaminothiazole]
– | 56 | COc1ccccc1-c1csc(N[C@H]2CC[C@H](CN(C=O)C(C)C)CC2)n1 [Example 96, trans-2-(4-(N-Isopropyl)formamidomethyl)cyclohexyl-amino-4-(2-methoxy)phenylthiazole hydrogen chloride]
– | 335 | COCCN(C=O)C[C@H]1CC[C@H](Nc2nc(-c3ccccc3OC)cs2)CC1 [Example 97]
– | 125 | COCCN(C=O)[C@H]1CC[C@H](CNc2nc(-c3ccccc3)cs2)CC1 [Example 98, trans-N-(2-Methoxyethyl)-N-(4-[(4-phenyl-1,3-thiazol-2-yl)amino]methylcyclohexyl)formamide]
– | 45 | CC(C)N(C=O)[C@H]1CC[C@H](CNc2nc(-c3ccccc3)cs2)CC1 [Example 99, trans-N-Isopropyl-N-(4-[(4-phenyl-1,3-thiazol-2-yl)amino]methylcyclohexyl)formamide]
– | 24 | CC(C)(C)OC(=O)NC[C@H]1CC[C@H](Nc2nc3c(s2)CCSc2ccccc2-3)CC1 [Example 100, tert-Butyl N-{[4-(4,5-Dihydrobenzo[2,3]thiepino[4,5-d][1,3]thiazol-2-ylamino)cyclohexyl]methyl}carbamate]
– | 5.9 | CCN(CC)S(=O)(=O)NCCCCCCNc1nc2c(s1)CCSc1ccccc1-2 [Example 101, N′-[6-(4,5-Dihydrobenzo[2,3]thiepino[4,5-d][1,3]thiazol-2-ylamino)hexyl]-N,N-diethylsulfamide]
– | 2.6 | CN(C)S(=O)(=O)NC[C@H]1CC[C@H](CNc2nc3c(s2)CCSc2ccc(F)cc2-3)CC1 [Example 106]
